Assay results: article PMC7536148, “Interactions of zearalanone, α-zearalanol, β-zearalanol, zearalenone-14-sulfate, and zearalenone-14-glucoside with serum albumin” (Mycotoxin Research, 2020)
Where “and” joins values, the source holds several entries; their conditions need not be identical. Equal values may be shown once. Where a name gives a salt, the structure may show the parent alone. Read-outs that look alike come from different tables or passages of the source.

Key:
[1] = target: T1, porcine serum albumin (PSA) (Sus scrofa, UniProt P08835); assay: Fluorescence quenching of porcine serum albumin by mycotoxins; format: binding; settings: for logKSV ± SEM (Stern-Volmer quenching constant): PSA 2 μmol/L, PBS pH 7.4, room temperature, λex = 295 nm, λem = 340 nm
T1 construct: purchased Sigma-Aldrich
T1 sequence (P08835 25-607): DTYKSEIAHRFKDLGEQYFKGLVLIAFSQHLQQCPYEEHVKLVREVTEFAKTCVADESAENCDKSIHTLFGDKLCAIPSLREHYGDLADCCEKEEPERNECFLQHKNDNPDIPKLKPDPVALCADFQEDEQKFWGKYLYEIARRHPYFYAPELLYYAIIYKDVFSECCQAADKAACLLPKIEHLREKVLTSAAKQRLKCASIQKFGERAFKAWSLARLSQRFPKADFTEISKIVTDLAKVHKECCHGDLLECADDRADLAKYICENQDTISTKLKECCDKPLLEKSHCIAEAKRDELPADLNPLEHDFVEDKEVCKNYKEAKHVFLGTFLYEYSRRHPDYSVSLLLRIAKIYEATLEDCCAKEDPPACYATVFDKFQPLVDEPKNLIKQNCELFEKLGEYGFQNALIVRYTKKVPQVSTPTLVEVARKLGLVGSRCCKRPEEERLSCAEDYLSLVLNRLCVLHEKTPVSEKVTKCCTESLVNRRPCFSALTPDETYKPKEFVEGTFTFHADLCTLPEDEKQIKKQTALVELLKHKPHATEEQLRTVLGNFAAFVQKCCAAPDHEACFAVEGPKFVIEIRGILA
Description: (§1) Fluorescence spectroscopic measurements were carried out employing a Hitachi F-4500 fluorescence spectrophotometer (Hitachi, Tokyo, Japan) to investigate the effect of increasing mycotoxin concentrations on the fluorescence signal of albumins as well as on the emission spectrum of warfarin-HSA complex. Our studies were executed in phosphate-buffered saline (PBS, pH 7.4; 8.00 g/L NaCl, 0.20 g/L KCl, 1.81 g/L Na2HPO4 × 2H2O, 0.24 g/L KH2PO4) at room temperature, in the presence of air.
(§2) For spectral correction of fluorescence emission intensities, absorption spectra of mycotoxins were also recorded applying a Jasco-V730 spectrophotometer (Jasco, Tokyo, Japan). The inner-filter effect of mycotoxins was corrected as described previously (Hu and Liu [2015]; Faisal et al. [2018]):1 Icor=Iobs×e^Aex+Aem/2 where Icor and Iobs indicate the corrected and observed fluorescence emission intensities, respectively. Aex and Aem denote the absorbance of mycotoxins at the excitation and emission wavelengths used, respectively.
(§3) To investigate the stability of mycotoxin-albumin complexes, mycotoxin-induced quenching effects on the intrinsic fluorescence of albumins were tested. The emission signal of albumins (2 μmol/L; λex = 295 nm; […]) were measured in the presence of increasing concentrations of mycotoxins (0.0, 1.0, 2.0, 3.0, 4.0, 5.0, 6.0, 7.0, 8.0, 9.0, and 10.0 μmol/L). Stern-Volmer quenching constants (KSV; unit: L/mol) were determined employing the Stern-Volmer equation (Ma et al. [2018]; Faisal et al. [2018]):2 I0/I=1+KSV×Q where Q is the concentration of the mycotoxin (unit: mol/L). I0 and I are the fluorescence emission signal of albumin in the absence and presence of mycotoxins, respectively. Z14S and Z14G exert fluorescence; their excitation and emission spectra, under different environmental conditions, have been reported previously (Faisal et al. [2019], [2020]).
(§4) Binding constants (K; unit: L/mol) of mycotoxin-albumin complexes were determined by nonlinear fitting employing Hyperquad2006 software, as described in details in our previous studies (Sueck et al. [2018]; Faisal et al. [2018]).

[2] = target: T2, warfarin-HSA complex (Homo sapiens, UniProt P02768); assay: Effect of mycotoxins on warfarin-HSA interaction (warfarin fluorescence); format: binding; settings: warfarin 1 μmol/L, HSA 3.5 μmol/L, mycotoxin 0-15 μmol/L, PBS pH 7.4, λex = 317 nm
T2 construct: purchased Sigma-Aldrich
T2 sequence (P02768 25-609, one chain of several): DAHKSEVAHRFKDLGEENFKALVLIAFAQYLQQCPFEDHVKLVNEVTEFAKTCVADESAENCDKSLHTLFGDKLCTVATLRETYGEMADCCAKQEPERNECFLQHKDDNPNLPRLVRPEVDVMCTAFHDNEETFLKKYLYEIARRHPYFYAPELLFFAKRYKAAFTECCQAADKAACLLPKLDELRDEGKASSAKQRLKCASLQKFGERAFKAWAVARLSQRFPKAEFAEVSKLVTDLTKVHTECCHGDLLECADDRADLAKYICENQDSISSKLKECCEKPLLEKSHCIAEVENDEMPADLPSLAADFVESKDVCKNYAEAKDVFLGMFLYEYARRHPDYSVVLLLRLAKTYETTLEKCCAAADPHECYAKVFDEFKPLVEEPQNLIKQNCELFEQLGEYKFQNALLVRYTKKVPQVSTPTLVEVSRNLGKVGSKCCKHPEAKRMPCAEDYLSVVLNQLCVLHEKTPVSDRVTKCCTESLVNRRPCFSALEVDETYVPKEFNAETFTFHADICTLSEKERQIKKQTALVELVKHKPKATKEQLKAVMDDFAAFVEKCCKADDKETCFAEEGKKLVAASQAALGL
Description: as §1, §2
To test the effects of ZEN metabolites on warfarin-HSA interaction, our previously reported method was applied (Faisal et al. [2018]; Fliszár-Nyúl et al. [2019]). In this experiment, the fluorescence emission signal of warfarin (1 μmol/L; λex = 317 nm, λem = 379 nm) was examined in the presence of HSA (3.5 μmol/L) without and with mycotoxins (0, 1, 2, 3, 4, 5, 6, 8, 10, and 15 μmol/L) in PBS (pH 7.4). Under these conditions, approximately 70% of warfarin is albumin-bound.

[3] = target: T3, HSA (Homo sapiens, UniProt P02768); assay: High-performance affinity chromatography on HSA-coated column; format: binding; settings: Chiralpak HSA column, isopropanol / 0.01 mol/L ammonium acetate pH 7.0 (15:85 v/v%), 0.5 mL/min, room temperature
T3 construct: purchased Daicel Chiralpak HSA, 50 × 3.0 mm, 5 μm
T3 sequence (P02768 25-609): as the sequence (P02768 25-609, one chain of several) above
Description: HPAC was performed with a HSA-coated column (Faisal et al. [2018]). The HPLC system (Jasco, Tokyo, Japan) used for the analysis included an autosampler (AS-4050), a binary pump (PU-4180), and a diode-array detector (MD-4017). A 5-μL volume of samples (ZAN: 200 μmol/L; ZEN, α-ZAL, β-ZAL, and Z14S: 100 μmol/L; Z14G: 50 μmol/L) was driven through a pre-column filter (Waters, Milford, MA, USA) linked to an immobilized HSA-coated HPAC column (Chiralpak® HSA, 50 × 3.0 mm, 5 μm; Daicel, Tokyo, Japan). The isocratic elution was performed with 0.5-mL/min flow rate at room temperature. The mobile phase contained isopropanol (HPLC grade; VWR, Debrecen, Hungary) and 0.01 mol/L pH 7.0 ammonium acetate buffer (15:85 v/v%). Mycotoxins were detected at 235 nm, and chromatograms were evaluated with ChromNAV software.

[4] = target: T4, human serum albumin (HSA) (Homo sapiens, UniProt P02768); assay: Fluorescence quenching of human serum albumin by mycotoxins; format: binding; settings: for logKSV ± SEM (Stern-Volmer quenching constant): HSA 2 μmol/L, PBS pH 7.4, room temperature, λex = 295 nm, λem = 340 nm; for Kd: logK ± SEM (binding constant of mycotoxin-albumin complex), HSA, quenching data, Hyperquad2006 fitting, 1:1 stoichiometry, PBS pH 7.4
T4 construct: purchased Sigma-Aldrich
T4 sequence (P02768 25-609): as the sequence (P02768 25-609, one chain of several) above
Description: as §1, §2, §3, §4

[5] = target: T5, rat serum albumin (RSA) (Rattus norvegicus, UniProt P02770); assay: Fluorescence quenching of rat serum albumin by mycotoxins; format: binding; settings: for logKSV ± SEM (Stern-Volmer quenching constant): RSA 2 μmol/L, PBS pH 7.4, room temperature, λex = 295 nm, λem = 340 nm
T5 construct: purchased Sigma-Aldrich
T5 sequence (P02770 25-608): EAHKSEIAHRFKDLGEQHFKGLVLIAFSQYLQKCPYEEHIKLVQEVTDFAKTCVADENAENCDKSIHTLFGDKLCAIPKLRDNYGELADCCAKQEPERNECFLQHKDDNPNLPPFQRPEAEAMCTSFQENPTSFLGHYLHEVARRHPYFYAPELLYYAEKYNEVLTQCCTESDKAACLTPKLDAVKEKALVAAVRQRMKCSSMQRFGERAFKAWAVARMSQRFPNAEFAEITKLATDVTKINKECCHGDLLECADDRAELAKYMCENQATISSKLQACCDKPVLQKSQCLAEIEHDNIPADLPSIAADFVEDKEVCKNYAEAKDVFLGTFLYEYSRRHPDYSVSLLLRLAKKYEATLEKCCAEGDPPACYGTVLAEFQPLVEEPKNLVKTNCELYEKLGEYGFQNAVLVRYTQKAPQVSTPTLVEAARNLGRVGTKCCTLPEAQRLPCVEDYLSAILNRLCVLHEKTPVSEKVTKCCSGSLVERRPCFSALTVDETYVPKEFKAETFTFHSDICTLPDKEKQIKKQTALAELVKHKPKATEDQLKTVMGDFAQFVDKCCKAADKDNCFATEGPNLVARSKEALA
Description: as §1, §2, §3, §4

[6] = target: T6, bovine serum albumin (BSA) (Bos taurus, UniProt P02769); assay: Fluorescence quenching of bovine serum albumin by mycotoxins; format: binding; settings: for logKSV ± SEM (Stern-Volmer quenching constant): BSA 2 μmol/L, PBS pH 7.4, room temperature, λex = 295 nm, λem = 340 nm
T6 construct: purchased Sigma-Aldrich
T6 sequence (P02769 25-607): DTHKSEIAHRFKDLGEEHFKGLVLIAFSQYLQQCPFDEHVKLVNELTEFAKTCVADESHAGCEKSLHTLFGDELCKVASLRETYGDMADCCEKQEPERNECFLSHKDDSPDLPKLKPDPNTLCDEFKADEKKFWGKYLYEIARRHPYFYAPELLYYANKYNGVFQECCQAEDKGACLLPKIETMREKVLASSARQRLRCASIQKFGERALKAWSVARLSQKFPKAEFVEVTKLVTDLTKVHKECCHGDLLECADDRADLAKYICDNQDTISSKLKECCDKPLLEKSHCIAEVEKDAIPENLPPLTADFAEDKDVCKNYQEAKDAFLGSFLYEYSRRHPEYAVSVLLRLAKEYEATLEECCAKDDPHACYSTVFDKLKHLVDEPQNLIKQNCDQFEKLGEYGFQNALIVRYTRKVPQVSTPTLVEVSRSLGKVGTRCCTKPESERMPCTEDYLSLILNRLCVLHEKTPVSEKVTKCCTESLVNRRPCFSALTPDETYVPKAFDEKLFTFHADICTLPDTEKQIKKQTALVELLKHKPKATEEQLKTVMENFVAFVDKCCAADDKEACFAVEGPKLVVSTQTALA
Description: as §1, §2, §3, §4

[7] = target: T2, warfarin-HSA complex; parameters: method as in Poór et al. 2017; Faisal et al. 2018; settings: allosteric interaction with Sudlow's site I ligand; ref Poór et al. 2017; Faisal et al. 2018; cited from earlier work
[8] = test system: estrogen receptors; settings: cited from earlier work
[9] = pigs, ref Binder et al. 2017; cited from earlier work
[10] = from binding constants of Table 2

SMILES	Kd [1] [µM]	logKSV ± SEM (Stern-Volmer quenching constant) [1] [L/mol]	effect on fluorescence emission signal of warfarin at 379 nm (warfarin-HSA interaction) [2]	retention time (tR) from HSA-HPAC affinity column [3]	logKSV ± SEM (Stern-Volmer quenching constant) [4] [L/mol]	Kd [4]	Kd [5] [µM]	logKSV ± SEM (Stern-Volmer quenching constant) [5] [L/mol]	difference in binding affinity, RSA vs. PSA complex [5, 10] [fold]	logKSV ± SEM (Stern-Volmer quenching constant) [6] [L/mol]	Kd ([6]; BSA, quenching data, Hyperquad2006 fitting, 1:1 stoichiometry, PBS pH 7.4, read-out: logK ± SEM (binding constant of mycotoxin-albumin complex) (converted)) [µM]	difference in binding affinity, RSA vs. BSA complex [5, 10] [fold]	Kd [6] [µM]	effect on binding affinity of warfarin towards HSA [7]	xenoestrogenic effects compared with ZEN ([8]; ref EFSA 2017, Fleck et al. 2017, Frizzell et al. 2011, Filannino et al. 2011)	difference in binding affinity, RSA and HSA complex [5, 10] [fold]	lower estrogenicity vs. ZEN ([8]; in vitro, ref Drzymala et al. 2015) [fold]	intestinal hydrolysis to ZEN after oral administration [9]
C[C@H]1CCCC(=O)CCCCCc2cc(O)cc(O)c2C(=O)O1 [ZAN, zearalanone]	107	3.97 ± 0.06	considerably increased the emission signal of warfarin	8.0 min and 8.017 min	4.52 ± 0.04	26.3 µM	7.59	5.00 ± 0.03	14	4.41 ± 0.04	30.9							
C[C@H]1CCC[C@@H](O)CCCCCc2cc(O)cc(O)c2C(=O)O1 [β-ZAL, β-zearalanol]	70.8	4.13 ± 0.09	did not affect the fluorescence at 379 nm	3.1 min and 3.053 min	4.34 ± 0.04	42.7 µM	2.45	5.43 ± 0.01		3.88 ± 0.06		30	75.9					
C[C@H]1CCC[C@H](O)CCC/C=C/c2cc(O)cc(O)c2C(=O)O1 [α-ZEL, α-zearalenol, reference compound]														increase	considerably higher xenoestrogenic effects than ZEN			
C[C@H]1CCCC(=O)CCC/C=C/c2cc(OS(=O)(=O)O)cc(O)c2C(=O)O1 [Z14S, Zearalenone-14-sulfate ammonium salt]	7.59	5.04 ± 0.02	did not affect the fluorescence at 379 nm	23.3 min and 23.293 min	4.64 ± 0.03	20 µM and 19.5 µM	1.17	5.70 ± 0.02		5.32 ± 0.02			3.72			16	100	complete intestinal hydrolysis to ZEN
